Measured values: ChEMBL document CHEMBL5696444 (Nat Commun, 2017)

Key:
[1] = target: Angiopoietin-1 receptor (Homo sapiens) (UniProt Q02763); test: Inhibition of TEK (unknown origin) at 100 nM in the presence of ATP by Kinome scan method relative to control
[2] = Stability of compound in tissue culture medium assessed as remaining parent compound at 5.30 uM incubated for 48 hrs; assay type: physicochemical; conditions: read-out: Stability
HCT-116 = test: Induction of apoptosis in human HCT-116 cells assessed as necrosis cells at 5 uM incubated for > 6 hrs by annexin V/PI staining based analysis (Rvb=0.55%); assay type: functional

Sequence of Angiopoietin-1 receptor (Homo sapiens) (Q02763 whole entry): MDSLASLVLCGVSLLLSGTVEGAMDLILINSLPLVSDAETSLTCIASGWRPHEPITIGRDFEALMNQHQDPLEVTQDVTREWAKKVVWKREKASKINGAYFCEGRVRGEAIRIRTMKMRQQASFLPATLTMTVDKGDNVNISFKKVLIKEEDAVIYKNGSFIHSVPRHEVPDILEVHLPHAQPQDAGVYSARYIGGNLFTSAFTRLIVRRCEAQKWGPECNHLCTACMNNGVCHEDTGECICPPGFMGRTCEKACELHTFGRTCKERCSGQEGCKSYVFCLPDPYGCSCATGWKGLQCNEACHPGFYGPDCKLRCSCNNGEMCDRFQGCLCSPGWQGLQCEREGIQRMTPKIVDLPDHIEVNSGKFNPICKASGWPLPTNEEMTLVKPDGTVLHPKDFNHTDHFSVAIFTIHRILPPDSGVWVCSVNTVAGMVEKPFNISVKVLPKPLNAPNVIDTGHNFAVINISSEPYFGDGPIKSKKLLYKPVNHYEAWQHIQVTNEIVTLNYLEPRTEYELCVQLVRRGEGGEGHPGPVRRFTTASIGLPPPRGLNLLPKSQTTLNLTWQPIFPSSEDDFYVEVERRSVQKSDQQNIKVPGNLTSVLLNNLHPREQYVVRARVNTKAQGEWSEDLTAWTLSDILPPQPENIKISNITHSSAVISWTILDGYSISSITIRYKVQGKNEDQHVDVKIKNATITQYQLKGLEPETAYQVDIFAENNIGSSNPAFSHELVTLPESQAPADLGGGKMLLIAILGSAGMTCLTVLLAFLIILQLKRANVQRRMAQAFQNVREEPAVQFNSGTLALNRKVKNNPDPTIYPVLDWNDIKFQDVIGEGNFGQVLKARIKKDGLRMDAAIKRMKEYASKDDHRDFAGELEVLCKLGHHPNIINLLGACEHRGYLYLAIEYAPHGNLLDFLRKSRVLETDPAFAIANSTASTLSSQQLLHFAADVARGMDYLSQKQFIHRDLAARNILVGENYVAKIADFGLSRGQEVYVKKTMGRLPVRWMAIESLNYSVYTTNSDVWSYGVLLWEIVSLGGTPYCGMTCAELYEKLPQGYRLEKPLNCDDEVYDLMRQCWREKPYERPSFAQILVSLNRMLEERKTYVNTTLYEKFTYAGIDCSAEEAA

inhibition [1]: 0%
remaining at 48 h, 5.3 µM [2]: 98.7%
SMILES: CN1CCN(C(=O)C(C)(C)c2ccc(C(=O)Nc3cn4cc(-c5ccncc5)ccc4n3)cc2)CC1 [T3-CLK]
Activity (HCT-116): 0.87%
